The results in this text go back to article PMC10547238, “Discovery of Potent Tetrazole Free Fatty Acid Receptor 2 Antagonists” (Journal of Medicinal Chemistry, 2023).

For one assay, the target named is T1, hFFA2 (Homo sapiens, UniProt O15552).
T1 construct: expressed in transfected cells; host or cells: Flp-In T-Rex 293 cells, doxycycline-induced
T1 sequence (O15552 1-330): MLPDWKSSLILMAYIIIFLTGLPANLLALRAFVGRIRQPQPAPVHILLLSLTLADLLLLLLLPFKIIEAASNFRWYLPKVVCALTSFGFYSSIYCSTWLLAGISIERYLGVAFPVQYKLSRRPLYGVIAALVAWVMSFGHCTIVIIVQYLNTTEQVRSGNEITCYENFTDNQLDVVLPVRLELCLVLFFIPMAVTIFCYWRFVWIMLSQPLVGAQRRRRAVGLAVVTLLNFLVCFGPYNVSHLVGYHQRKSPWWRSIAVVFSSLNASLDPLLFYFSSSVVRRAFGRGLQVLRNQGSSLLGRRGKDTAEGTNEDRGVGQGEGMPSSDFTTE
The assay can be described thus: cAMP assay, antagonist mode, Flp-In T-Rex 293 cells expressing hFFA2-eYFP. The class given is cell-based. The settings on record: for cAMP pIC50: hFFA2, antagonist mode, propionate at EC80, mean ± SEM, three or more experiments; for LLEcAMP: pIC50, cAMP – ClogP; for IC50 / hFFA2 cAMP (pIC50): supplementary CSV; for IC50: read-out: hFFA2 cAMP (pIC50) (converted). The method, then:
(§1) The activity of the compounds on FFA2 was evaluated in two different functional antagonist assays, both using propionate at EC80 as the agonist. The GTPγS assay reflects receptor activation by directly assessing G protein recruitment, whereas the cAMP assay, performed in whole cells, reflects a physiologically relevant downstream second messenger.
The hFFA2-eYFP and hFFA3-eYFP Flp-In T-Rex 293 cell lines were maintained in Dulbecco’s modified Eagle mMedium (DMEM, ThermoFisher #11965092) supplemented with 10% (v/v) fetal bovine serum, 100 U/mL penicillin, 100 μg/mL streptomycin, 5 μg/mL blasticidin S, and 200 μg/mL hygromycin B and incubated at 37 °C and 5% CO2 in a humidified incubator. Cells were passaged at 70–80% confluency.
To determine the compound’s ability to activate or inhibit the Gi-coupled FFA2 or FFA3, intracellular cAMP concentrations were determined using Flp-In T-Rex293 cells induced to express hFFA2-eYFP or hFFA3-eYFP. Experiments were carried out using a homogeneous time-resolved FRET-based detection kit (CisBio, PerkinElmer #62AM9PEC) according to the manufacturer’s protocol. The day before the assay, 10,000 cells/well were plated in DMEM supplemented with penicillin/streptomycin (100 units/mL and […], respectively), 5 μg/mL blasticidin S, and 200 μg/mL hygromycin B in 96-well cell culture microplates (Greiner Bio-One) and induced to express hFFA2-eYFP or hFFA3-YFP with 100 ng/mL doxycycline.
In antagonist mode, the cells were pre-incubated for 20 min with antagonist test compounds in HBSS together with 50 μM IBMX at rt. Then, the cells were further incubated for 25 min at rt in HBSS with the agonist compound, sodium propionate at EC80 (51.4 μM for FFA2, 13.2 μM for FFA3), and 3 μM forskolin. Reactions were stopped, and the output was measured with an Envision plate reader using a time-resolved fluorescence protocol, measuring the light emission at 620 and 665 nm. All analyses were performed in triplicate and analyzed using GraphPad Prism (version 9).
Background: cAMP levels reflect the balance of adenylyl cyclase and phosphodiesterase activity.

Another assay deals with T2, human FFA2-eYFP (Homo sapiens, UniProt O15552).
T2 construct: expressed in transfected cells; host or cells: membranes of Flp-In T-Rex 293 cells induced to express the construct
T2 sequence (O15552 1-330): T1 sequence (O15552 1-330)
The assay is described as follows: [35S]GTPγS incorporation assay, membranes of Flp-In T-Rex 293 cells. The format is biochemical. The settings on record: for GTPγS pIC50: hFFA2, propionate at EC80, mean ± SEM, three or more experiments; for LLEGTPγS: pIC50, GTPγS – ClogP. The procedure: as §1
Functional activity of the compounds were tested in a [^35S]GTPγS incorporation assay using membranes of Flp-In T-Rex 293 cells induced to express human FFA2-eYFP. […] The reaction was initiated by addition of [^35S]GTPγS (100 nCi per reaction) containing 1 μM GDP and incubated at 30 °C for 60 min. The reaction was terminated by rapid vacuum filtration through GF/C glass fiber filter-bottom 96-well microplates (PerkinElmer Life Sciences, Beaconsfield, UK) using a UniFilter FilterMate Harvester (PerkinElmer). Unbound radioligands were removed from filters by three washes with ice-cold PBS. MicroScint-20 (PerkinElmer) was added to dried filters, and [^35S]GTPγS binding was quantified by liquid scintillation spectroscopy.

`O=C(Cc1ccccc1)N[C@@H](Cc1ccc(C(F)(F)F)cc1)Cc1nnn[nH]1` [Compound 16a, (S)-N-(1-(1H-Tetrazol-5-yl)-3-(4-(trifluoromethyl)phenyl)propan-2-yl)-2-phenylacetamide]: at hFFA2, the “cAMP pIC50” value was 7.89 ± 0.20, the LLEcAMP turned out to be 5.33 and the IC50 was 11.7 nM. Also, on human FFA2-eYFP, the “GTPγS pIC50” value came out at 8.36 ± 0.09 and the LLEGTPγS was 5.80.
For `O=C(N[C@@H](Cc1ccc(C(F)(F)F)cc1)Cc1nnn[nH]1)C1Cc2ccccc21` (stereo partly drawn) [Compound 16b, N-((S)-1-(1H-Tetrazol-5-yl)-3-(4-(trifluoromethyl)phenyl)propan-2-yl)bicyclo[4.2.0]octa-1(6),2,4-triene-7-carboxamide], at hFFA2, the “cAMP pIC50” value was 7.96 ± 0.03, the LLEcAMP is 5.39 and the “hFFA2 cAMP (pIC50)” value is 7.95 ± 0.12. At human FFA2-eYFP, the “GTPγS pIC50” value came out at 8.06 ± 0.06 and the LLEGTPγS turned out to be 5.49.
On to `O=C(Cc1cccc(F)c1)N[C@@H](Cc1ccc(C(F)(F)F)cc1)Cc1nnn[nH]1` [Compound 16c, (S)-N-(1-(1H-Tetrazol-5-yl)-3-(4-(trifluoromethyl)phenyl)propan-2-yl)-2-(3-fluorophenyl)acetamide], for which, on hFFA2, the “cAMP pIC50” value is 8.26 ± 0.16 and the LLEcAMP is given as 5.55. Besides, at human FFA2-eYFP, the “GTPγS pIC50” value is listed as 8.13 ± 0.04 and the LLEGTPγS was determined as 5.42.
For the compound `O=C(Cc1cccc(F)c1)N[C@@H](Cc1ccccc1)Cc1nnn[nH]1` [Compound 16d, (S)-2-(3-Fluorophenyl)-N-(1-phenyl-3-(1H-tetrazol-5-yl)propan-2-yl)acetamide], at hFFA2, the “cAMP pIC50” value is 6.91 ± 0.07, the LLEcAMP was 5.09 and the IC50 was 102 nM. Moreover, at human FFA2-eYFP, the “GTPγS pIC50” value is recorded as 7.47 ± 0.04 and the LLEGTPγS came to 5.65.
The corresponding values for `O=C(Cc1ccc(Cl)cc1)N[C@@H](Cc1ccc(C(F)(F)F)cc1)Cc1nnn[nH]1` [Compound 16f, (S)-N-(1-(1H-Tetrazol-5-yl)-3-(4-(trifluoromethyl)phenyl)propan-2-yl)-2-(4-chlorophenyl)acetamide] are 8.08 ± 0.11, 4.80, 9.33 nM, 8.07 ± 0.04 and 4.79.
The corresponding values for `O=C(Cc1cccc(C(F)(F)F)c1)N[C@@H](Cc1ccc(C(F)(F)F)cc1)Cc1nnn[nH]1` [Compound 16i, (S)-N-(1-(1H-Tetrazol-5-yl)-3-(4-(trifluoromethyl)phenyl)propan-2-yl)-2-(3-(trifluoromethyl)phenyl)acetamide] are 7.68 ± 0.11, 4.23, 15.8 nM, 8.05 ± 0.21 and 4.60.
On to `CCOc1cccc(CC(=O)N[C@@H](Cc2ccc(C(F)(F)F)cc2)Cc2nnn[nH]2)c1` [Compound 16m, (S)-N-(1-(1H-Tetrazol-5-yl)-3-(4-(trifluoromethyl)phenyl)propan-2-yl)-2-(3-ethoxyphenyl)acetamide], for which, on hFFA2, the “cAMP pIC50” value is listed as 7.77 ± 0.12, the LLEcAMP came out at 4.76 and the IC50 was 15.8 nM. For the same compound, on human FFA2-eYFP, the “GTPγS pIC50” value was 8.05 ± 0.19 and the LLEGTPγS amounted to 5.04.
The corresponding values for `O=C(Cc1cccc(OC(F)(F)F)c1)N[C@@H](Cc1ccc(C(F)(F)F)cc1)Cc1nnn[nH]1` [Compound 16n, (S)-N-(1-(1H-Tetrazol-5-yl)-3-(4-(trifluoromethyl)phenyl)propan-2-yl)-2-(3-(trifluoromethoxy)phenyl)acetamide] are 7.44 ± 0.18, 3.85, 46.8 nM, 7.50 ± 0.23 and 3.91.
Take `O=C(CC1CCCC1)N[C@@H](Cc1ccc(C(F)(F)F)cc1)Cc1nnn[nH]1` [Compound 16o, (S)-N-(1-(1H-Tetrazol-5-yl)-3-(4-(trifluoromethyl)phenyl)propan-2-yl)-2-cyclopentylacetamide]: on hFFA2, the “cAMP pIC50” value amounted to 5.24 ± 0.17, the LLEcAMP was 2.35 and the “hFFA2 cAMP (pIC50)” value is reported as 5.22 ± 0.18. In addition, on human FFA2-eYFP, the “GTPγS pIC50” value is recorded as 5.78 ± 0.14 and the LLEGTPγS was determined as 2.89.
In the case of `CCCCCC(=O)N[C@@H](Cc1ccc(C(F)(F)F)cc1)Cc1nnn[nH]1` [Compound 16p, (S)-N-(1-(1H-Tetrazol-5-yl)-3-(4-(trifluoromethyl)phenyl)propan-2-yl)hexanamide], at hFFA2, the “cAMP pIC50” value is 6.36 ± 0.12, the LLEcAMP is on record as 3.45 and the IC50 was 355 nM. Moreover, on human FFA2-eYFP, the “GTPγS pIC50” value is given as 6.37 ± 0.44 and the LLEGTPγS worked out at 3.46.
With `O=C(CCc1ccccc1)N[C@@H](Cc1ccc(C(F)(F)F)cc1)Cc1nnn[nH]1` [Compound 16q, (S)-N-(1-(1H-Tetrazol-5-yl)-3-(4-(trifluoromethyl)phenyl)propan-2-yl)-3-phenylpropanamide], at hFFA2, the “cAMP pIC50” value is 6.78 ± 0.14, the LLEcAMP is 3.89 and the IC50 was 186 nM. For the same compound, on human FFA2-eYFP, the “GTPγS pIC50” value is given as 7.19 ± 0.04 and the LLEGTPγS is reported as 4.30.
With `O=C(Cc1ccccn1)N[C@@H](Cc1ccc(C(F)(F)F)cc1)Cc1nnn[nH]1` [Compound 16r, (S)-2-(2-((1-(1H-Tetrazol-5-yl)-3-(4-(trifluoromethyl)phenyl)propan-2-yl)amino)-2-oxoethyl)pyridin-1-ium 2,2,2-trifluoroacetate], on hFFA2, the “cAMP pIC50” value came to 5.93 ± 0.15, the LLEcAMP stood at 4.86 and the IC50 was 1450 nM. At human FFA2-eYFP, the “GTPγS pIC50” value was found to be 6.71 ± 0.17 and the LLEGTPγS is recorded as 5.64.
With `O=C(Cc1cccnc1)N[C@@H](Cc1ccc(C(F)(F)F)cc1)Cc1nnn[nH]1` [Compound 16s, (S)-3-(2-((1-(1H-Tetrazol-5-yl)-3-(4-(trifluoromethyl)phenyl)propan-2-yl)amino)-2-oxoethyl)pyridin-1-ium 2,2,2-trifluoroacetate], at hFFA2 (cAMP assay), the “decrease in potency compared to 16a” value was found to be 7 fold. On hFFA2, the “cAMP pIC50” value was determined as 6.89 ± 0.10, the LLEcAMP amounted to 5.82 and the IC50 is 91.2 nM. For the same compound, the “decrease in potency compared to 16a” value on human FFA2-eYFP (GTPγS assay) turned out to be 7 fold. At human FFA2-eYFP, the “GTPγS pIC50” value worked out at 7.29 ± 0.07 and the LLEGTPγS turned out to be 6.22.
`O=C(Cc1ccncc1)N[C@@H](Cc1ccc(C(F)(F)F)cc1)Cc1nnn[nH]1` [Compound 16t, (S)-N-(1-(1H-Tetrazol-5-yl)-3-(4-(trifluoromethyl)phenyl)propan-2-yl)-2-(pyridin-4-yl)acetamide]: on hFFA2, the “cAMP pIC50” value is 5.74 ± 0.13, the LLEcAMP is listed as 4.67 and the IC50 was 2950 nM. On human FFA2-eYFP, the “GTPγS pIC50” value worked out at 6.47 ± 0.15 and the LLEGTPγS amounted to 5.40.
The corresponding values for `O=C(Cc1ccc(Cl)nc1)N[C@@H](Cc1ccc(C(F)(F)F)cc1)Cc1nnn[nH]1` [Compound 16v, (S)-5-(2-((1-(1H-Tetrazol-5-yl)-3-(4-(trifluoromethyl)phenyl)propan-2-yl)amino)-2-oxoethyl)-2-chloropyridin-1-ium 2,2,2-trifluoroacetate] are 6.98 ± 0.13, 5.20, 95.5 nM, 7.20 ± 0.14 and 5.42.
